This is an account of results in US12421207B2 (CMG Pharmaceutical Co., Ltd., priority 2022, dated 2025).

Where two headings read alike, the source gives them in different places.

One experiment concerns the target c-MET (Homo sapiens, UniProt P08581). The experiment is described as follows: Enzymatic kinase assay (ADP-Glo), c-MET. The format is biochemical. The following applies: poly (Glu4, Tyr1) substrate, 60 min room temperature, ADP-GLO luminescence. How it is done:
(§1) All the kinase reactions were performed in 5 μL using tyrosine kinase buffer with 0.2 μg/μL poly (Glu4, Tyr1) substrate, 10 µM ATP, serial dilution of the inhibitor, and incubated at room temperature for 60 min. After the indicated incubation times, 5 μL ADP-GLO™ reagent (Promega, Madison, WI) was added to the reactions and the plate was incubated at room temperature for 40 min. […] All 384-well assay plates were read using a GLOMAX™ Discover Microplate Luminometer from Promega (Madison, WI). To plot, analyze the data and calculate all kinase reaction biochemical values, both Microsoft Excel and Prism from GraphPad 7 Software (La Jolla, CA) were used.

The target in another experiment is T1, AXL (Homo sapiens, UniProt P30530).
T1 sequence (P30530 26-894): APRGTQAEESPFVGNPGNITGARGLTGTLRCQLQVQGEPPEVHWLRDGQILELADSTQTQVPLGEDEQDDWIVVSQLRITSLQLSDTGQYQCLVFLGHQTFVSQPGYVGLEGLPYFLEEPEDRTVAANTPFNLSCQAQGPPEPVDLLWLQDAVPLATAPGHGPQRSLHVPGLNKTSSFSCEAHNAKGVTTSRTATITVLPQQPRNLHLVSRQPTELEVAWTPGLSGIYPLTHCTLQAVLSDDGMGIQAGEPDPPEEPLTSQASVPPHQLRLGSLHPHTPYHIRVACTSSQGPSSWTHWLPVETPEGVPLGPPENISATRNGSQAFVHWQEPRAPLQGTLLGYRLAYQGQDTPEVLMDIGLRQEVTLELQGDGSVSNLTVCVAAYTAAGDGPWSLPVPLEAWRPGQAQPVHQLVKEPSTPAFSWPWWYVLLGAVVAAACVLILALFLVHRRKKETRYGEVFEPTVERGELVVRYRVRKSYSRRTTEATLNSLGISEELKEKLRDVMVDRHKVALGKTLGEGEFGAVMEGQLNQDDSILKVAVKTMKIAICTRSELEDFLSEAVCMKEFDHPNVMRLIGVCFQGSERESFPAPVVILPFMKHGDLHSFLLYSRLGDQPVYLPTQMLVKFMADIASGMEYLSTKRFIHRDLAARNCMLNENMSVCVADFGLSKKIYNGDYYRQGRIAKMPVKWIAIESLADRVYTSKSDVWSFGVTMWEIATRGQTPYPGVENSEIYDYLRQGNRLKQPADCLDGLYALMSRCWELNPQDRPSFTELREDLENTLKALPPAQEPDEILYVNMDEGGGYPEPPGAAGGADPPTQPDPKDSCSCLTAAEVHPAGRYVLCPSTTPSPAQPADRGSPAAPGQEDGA
The experiment is described as follows: Enzymatic kinase assay (ADP-Glo), AXL. It is filed as biochemical. As to conditions: poly (Glu4, Tyr1) substrate, 60 min room temperature, ADP-GLO luminescence. How it is done:
as §1
A general note: ADP-Glo turns the ADP formed in a reaction into a luminescent signal.

Another experiment concerns the target T2, MER (Homo sapiens, UniProt Q12866).
T2 sequence (Q12866 21-999): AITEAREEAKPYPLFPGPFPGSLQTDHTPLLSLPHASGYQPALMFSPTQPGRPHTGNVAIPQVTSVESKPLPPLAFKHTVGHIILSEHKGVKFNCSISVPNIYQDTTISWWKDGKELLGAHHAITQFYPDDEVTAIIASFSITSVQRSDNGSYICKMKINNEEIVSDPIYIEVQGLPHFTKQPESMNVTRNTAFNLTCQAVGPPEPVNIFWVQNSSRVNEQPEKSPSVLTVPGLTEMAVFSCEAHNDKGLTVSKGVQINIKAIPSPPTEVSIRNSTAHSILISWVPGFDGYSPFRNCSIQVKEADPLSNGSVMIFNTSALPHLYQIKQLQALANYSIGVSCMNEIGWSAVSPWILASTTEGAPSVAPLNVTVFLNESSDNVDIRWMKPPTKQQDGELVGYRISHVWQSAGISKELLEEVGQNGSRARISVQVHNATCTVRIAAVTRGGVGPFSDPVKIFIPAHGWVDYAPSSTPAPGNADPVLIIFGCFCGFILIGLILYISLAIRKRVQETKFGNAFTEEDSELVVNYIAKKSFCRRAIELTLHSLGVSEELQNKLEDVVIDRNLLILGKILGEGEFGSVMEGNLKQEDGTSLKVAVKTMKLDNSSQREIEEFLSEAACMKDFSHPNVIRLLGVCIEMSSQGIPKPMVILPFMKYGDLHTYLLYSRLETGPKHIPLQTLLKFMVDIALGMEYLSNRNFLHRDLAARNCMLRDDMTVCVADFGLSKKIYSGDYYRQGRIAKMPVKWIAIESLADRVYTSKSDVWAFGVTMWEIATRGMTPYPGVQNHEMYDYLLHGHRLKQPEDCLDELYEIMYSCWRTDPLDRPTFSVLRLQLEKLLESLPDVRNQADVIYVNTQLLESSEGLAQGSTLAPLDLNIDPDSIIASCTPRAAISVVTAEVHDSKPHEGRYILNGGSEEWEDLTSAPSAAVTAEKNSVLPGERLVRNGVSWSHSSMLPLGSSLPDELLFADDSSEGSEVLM
The experiment can be described thus: Enzymatic kinase assay (ADP-Glo), MER. It is filed as biochemical. As to conditions: poly (Glu4, Tyr1) substrate, 60 min room temperature, ADP-GLO luminescence. How it is done:
All the kinase reactions were performed in 5 μL using tyrosine kinase buffer with 0.2 μg/μL poly (Glu4, Tyr1) substrate, 10 µM ATP, serial dilution of the inhibitor, and incubated at room temperature for 60 min. After the indicated incubation times, 5 μL ADP-GLO™ reagent (Promega, Madison, WI) was added to the reactions and the plate was incubated at room temperature for 40 min. Then, 10 μL of kinase detection reagent was added and after an incubation time of 40 min, luminescence was recorded and IC50 values were determined (Table 1). All 384-well assay plates were read using a GLOMAX™ Discover Microplate Luminometer from Promega (Madison, WI). To plot, analyze the data and calculate all kinase reaction biochemical values, both Microsoft Excel and Prism from GraphPad 7 Software (La Jolla, CA) were used.
All the kinase reactions were performed in 5 μL using tyrosine kinase buffer with 0.2 μg/μL poly (Glu4, Tyr1) substrate, 10 µM ATP, serial dilution of the inhibitor, and incubated at room temperature for 60 min. After the indicated incubation times, 5 μL ADP-GLO™ reagent (Promega, Madison, WI) was added to the reactions and the plate was incubated at room temperature for 40 min. […] All 384-well assay plates were read using a GLOMAX™ Discover Microplate Luminometer from Promega (Madison, WI). […]

The next experiment deals with PC9/ER cells. The experiment is described as follows: Cell viability assay (CellTiter-Glo 2.0), erlotinib-resistant PC9/ER cells. It is filed as cell-based. An excerpt:
(§2) To explore c-MET and AXL mechanisms of EGFR TKI resistance, resistant cells of the EGFR TKI hypersensitive EGFR exon 19 mutant NSCLC cell line, HCC827 and PC9 were generated by exposing these cells to increasing concentrations of EGFR TKI for over 3 months.
(§3) Gefitinib-resistant cells were referred to as HCC827/GR. […] Osimertinib-resistant cells were referred to as HCC827/OR.
For orientation: In ATP-based viability assays light output follows the ATP content of the culture.

Another experiment deals with HCC827/ER cells. The experiment is described as follows: Cell viability assay (CellTiter-Glo 2.0), erlotinib-resistant HCC827/ER cells. It is filed as cell-based, human. The following applies: 72 h drug treatment, read-out: Relative cell viability, IC50 HCC827ER.
From the text: as §2, §3

The test system of the next experiment is HCC827/GR cells. The experiment is described as follows: Cell viability assay (CellTiter-Glo 2.0), gefitinib-resistant HCC827/GR cells. It is filed as cell-based, human. As to conditions: 72 h drug treatment, read-out: Relative cell viability, IC50 HCC827GR. The method in brief: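 Gefitinib-resistant HCC827 cells, derived by over 3 months' escalating EGFR TKI exposure, seeded at 1,000 cells/well. Treated 72 h with a 10-point dose range from 1 nM to 10,000 nM. Viability read by CellTiter-Glo 2.0 luminescence.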

Another experiment deals with HCC827/OR cells. The experiment can be described thus: Cell viability assay (CellTiter-Glo 2.0), osimertinib-resistant HCC827/OR cells. It is filed as cell-based, human.
From the text: as §2, §3

For a further experiment, the system named is PC9 cells. The experiment can be described thus: Cell viability assay, parental PC9 cells. The format is cell-based. As to conditions: Homo sapiens, PC-9; parental EGFR TKI-sensitive cells. The protocol: (§4) The human cell line HCC827 was purchased from the American Type Culture Collection (Manassas, VA), and the PC9 cell line was obtained from RIKEN Cell Bank (Ibaraki, Japan). […] Gefitinib-resistant cells were referred to as HCC827/GR. […] Osimertinib-resistant cells were referred to as HCC827/OR.
(§5) Cell viability assays were carried out by plating 1,000 cells per well of HCC827 or PC9 resistant cells, respectively, into white transparent-bottom 384-well plates. The cells were treated with each TKI across a 10-dose range from 1 nM to 10,000 nM. After 72 h of drug treatment, cell viability was measured using the CellTiter-Glo 2.0 assay (Promega, Madison, WI).

Another experiment relates to HCC827 cells. The experiment can be described thus: cells. As to conditions: Homo sapiens, HCC827, read-out: EGFR TKI IC50 in HCC827 cells. How it is done: as §4, §5
[1] abbreviates: Table 2, EGFR TKI resistant cells, combination with EGFR TKI.
[2] abbreviates: Table 4, combinations of EGFR TKIs and inhibitor of Formula (I).

Chain of c-MET (P08581 25-1390): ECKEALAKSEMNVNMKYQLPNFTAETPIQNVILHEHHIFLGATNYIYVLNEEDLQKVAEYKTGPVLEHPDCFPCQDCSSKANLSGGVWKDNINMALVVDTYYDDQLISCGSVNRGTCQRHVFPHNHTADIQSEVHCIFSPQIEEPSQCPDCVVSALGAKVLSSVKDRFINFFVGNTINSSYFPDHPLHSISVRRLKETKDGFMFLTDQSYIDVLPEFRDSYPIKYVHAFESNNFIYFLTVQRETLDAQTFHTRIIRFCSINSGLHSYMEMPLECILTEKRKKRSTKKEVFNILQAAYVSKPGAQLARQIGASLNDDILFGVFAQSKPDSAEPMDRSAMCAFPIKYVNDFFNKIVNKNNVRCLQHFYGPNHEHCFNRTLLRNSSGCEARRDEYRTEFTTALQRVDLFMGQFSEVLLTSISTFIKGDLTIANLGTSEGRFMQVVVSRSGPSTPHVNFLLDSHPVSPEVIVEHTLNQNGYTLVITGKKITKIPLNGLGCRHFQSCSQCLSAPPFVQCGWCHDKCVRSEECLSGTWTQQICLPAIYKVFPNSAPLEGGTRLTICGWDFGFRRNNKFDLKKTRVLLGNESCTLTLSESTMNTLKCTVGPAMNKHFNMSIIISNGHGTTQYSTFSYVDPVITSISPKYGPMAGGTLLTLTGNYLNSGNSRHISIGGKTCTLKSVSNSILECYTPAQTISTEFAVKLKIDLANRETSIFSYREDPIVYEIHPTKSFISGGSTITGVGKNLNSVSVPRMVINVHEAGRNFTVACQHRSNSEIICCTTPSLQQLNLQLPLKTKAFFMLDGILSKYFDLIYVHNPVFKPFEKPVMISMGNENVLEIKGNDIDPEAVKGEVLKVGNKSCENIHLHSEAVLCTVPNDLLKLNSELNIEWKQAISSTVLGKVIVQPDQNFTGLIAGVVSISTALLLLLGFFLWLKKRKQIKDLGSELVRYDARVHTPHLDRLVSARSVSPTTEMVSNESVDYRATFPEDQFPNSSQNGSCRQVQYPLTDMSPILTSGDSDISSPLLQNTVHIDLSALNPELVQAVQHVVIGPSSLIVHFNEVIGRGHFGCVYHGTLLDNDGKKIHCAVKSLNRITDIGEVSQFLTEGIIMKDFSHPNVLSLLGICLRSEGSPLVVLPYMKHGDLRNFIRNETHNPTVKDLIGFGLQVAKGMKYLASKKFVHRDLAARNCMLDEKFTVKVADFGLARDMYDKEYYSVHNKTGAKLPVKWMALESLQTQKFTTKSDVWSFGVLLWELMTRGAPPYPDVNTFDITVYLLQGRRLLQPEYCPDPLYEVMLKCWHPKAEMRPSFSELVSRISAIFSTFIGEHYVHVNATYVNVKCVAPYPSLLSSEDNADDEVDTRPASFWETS

For the molecule `CC(C)c1c(Oc2ccc(NC(=O)c3cn(C(C)C)c(=O)n(-c4ccc(F)cc4)c3=O)cc2F)ccnc1N` [Example 8], the IC50 at c-MET (Table 1) is below 10 nM; against AXL (Table 1) it was below 10 nM; at MER (Table 1), below 100 nM; with PC9/ER cells (Table 2, 72 h drug treatment, EGFR TKI resistant cells, combination with EGFR TKI, read-out: Relative cell viability, IC50 PC9ER), below 10 µM; in the experiment on HCC827/ER cells (setting [1]), below 100 nM; in the experiment with HCC827/GR cells (setting [1]), below 100 nM. Moreover, in the experiment on HCC827/OR cells (Table 2, 72 h drug treatment, EGFR TKI resistant cells, combination with EGFR TKI, read-out: Relative cell viability, IC50 HCC827OR), the IC50 was below 100 nM.

As to `C#Cc1cccc(Nc2ncnc3cc(OCCOC)c(OCCOC)cc23)c1` [erlotinib, reference compound], the IC50 in the experiment on PC9/ER cells (Homo sapiens, PC-9/ER, read-out: EGFR TKI IC50 in PC9/ER) was above 10 µM; in the experiment with PC9 cells it was below 10 nM. For the same molecule, the “higher resistance than the parental cells, PC9/ER” value in the experiment on PC9/ER cells (PC9/ER versus parental PC9) is 1,000 fold.

With `C=CC(=O)Nc1cc(Nc2nccc(-c3cn(C)c4ccccc34)n2)c(OC)cc1N(C)CCN(C)C` [osimertinib, reference compound], in the experiment on HCC827/OR cells (HCC827/OR versus parental HCC827), the “higher resistance than the parental cells, HCC827/OR” value is given as 3,000 fold. In addition, the IC50 in the experiment on HCC827/OR cells (Homo sapiens, HCC827, read-out: EGFR TKI IC50 in HCC827/OR cells) is above 1000 nM; with HCC827 cells, below 0.3 nM.

As for “N-(4-(2-amino-3-(3-piperidin-4-yl)prop-1-ynyl)pyridin-4-yloxy)-3-fluorophenyl)-3-cyclohexyl-1-ethyl-2,4-dioxo-1,2,3,4-tetrahydropyrimidine-5-carboxamide [Example 65]”, the IC50 on c-MET (Table 3) is below 100 nM; on AXL (Table 3), below 10 nM; at MER (Table 3) it was below 10 nM; with PC9/ER cells (Table 4, 72 h drug treatment, combinations of EGFR TKIs and inhibitor of Formula (I), read-out: Relative cell viability, IC50 PC9ER), below 1 µM; in the experiment on HCC827/ER cells (setting [2]), below 1000 nM; in the experiment on HCC827/GR cells (setting [2]) it was below 1000 nM. The IC50 with HCC827/OR cells (Table 4, 72 h drug treatment, combinations of EGFR TKIs and inhibitor of Formula (I), read-out: Relative cell viability, IC50 HCC827OR) was below 10000 nM.
